# Reference: patent US9238815B2 (priority 2009, dated 2016)
# What was measured:
# WSN-Ren virus [1] = assay type: cell-based, influenza A/WSN/33 virus
# influenza A/WSN/33 virus [2] = assay type: cell-based
# influenza A/WSN/33 virus [3] = assay: Small molecule inhibition of virus growth in A549 cells, plaque assay; assay type: cell-based
# [4] = tested on: pseudotyped lentivirus particles bearing influenza virus HA (WSN); assay type: cell-based
# influenza virus = assay type: cell-based
# WSN-Ren virus [5] = assay type: cell-based, influenza A/WSN/33 virus; remark: listed apart in the source
compound,measurement,setting,value
"O=c1[nH]c2ccccc2c(O)c1-c1nc2ccccc2[nH]1 [FGF/VEGF Receptor Inhibitor, 4-Hydroxy-3-benzimidazol-2-ylhydroquinolin-2-one]",WSN-Ren virus growth,WSN-Ren virus [1],reduce influenza virus growth
COc1ccc(S(=O)(=O)N(CCO)c2ccccc2CN(C)C/C=C/c2ccc(Cl)cc2)cc1 [KN-93],cell viability (ATP levels),MDCK cells,without affecting cell viability
same,A/WSN/33 influenza viral replication (viral titers),influenza A/WSN/33 virus [2],inhibits A/WSN/33 influenza viral replication in a dose-dependent manner
same,influenza virus growth by plaque assay,influenza A/WSN/33 virus [3]; 20 μM,impairs influenza virus growth
"CCc1cc(-c2n[nH]c(C)c2-c2ccc3c(c2)OCCO3)c(O)cc1O [CCT018159, 4-(4-(2,3-Dihydro-1,4-benzodioxin-6-yl)-5-methyl-1H-pyrazol-3-yl)-6-ethylresorcinol]",WSN-Ren virus growth,WSN-Ren virus [1],reduce influenza virus growth
COc1cc2c(O)c3c(c(-c4ccc5c(c4)OCO5)c2cc1OC)C(=O)OC3 [Diphyllin],influenza virus entry,[4],inhibits influenza virus entry
same,influenza virus inhibitory activity in high-throughput screen,influenza virus,having influenza virus inhibitory activity
same,inhibition of influenza A/WSN/33 virus,"influenza A/WSN/33 virus [3]; A549 cells, MOI=1, FIG. 8b",Dose-dependent inhibition
"HIST3H3 (guide TGAGAGGTTGCGCAACGTTCA; target site or template, no part of the molecule; target sequence, further chemistry not given here)",Avg Score 12 h,WSN-Ren virus [5],0.6254
same,Avg Score 24 h,WSN-Ren virus [5],0.5921
same,Avg Score 36 h,WSN-Ren virus [5],0.4817
COc1cc([C@@H]2c3cc4c(cc3[C@H](O)[C@H]3COC(=O)[C@H]23)OCO4)cc(OC)c1OC [Podophyllotoxin],WSN-Ren virus growth,WSN-Ren virus [1],reduce influenza virus growth
